Reference: the NIST ThermoML archive (doi:10.1016/j.jct.2013.06.008)

Details: 100 kPa, Liquid; for electrical conductivity: Alternating current cell with electrodes

CCCCCC[n+]1ccc(C)cc1.O=S(=O)([N-]S(=O)(=O)C(F)(F)F)C(F)(F)F
Details | electrical conductivity [S/m]
283.15 K | 0.0839
288.15 K | 0.11
293.15 K | 0.145
298.15 K | 0.185
303.15 K | 0.231
308.15 K | 0.283
313.15 K | 0.346
318.15 K | 0.415
323.15 K | 0.487
328.15 K | 0.571
333.15 K | 0.652
338.15 K | 0.756
343.15 K | 0.861
348.15 K | 0.968
353.15 K | 1.07

Details | mass density, Vibrating tube method [kg/m3] | viscosity, Concentric cylinders viscometry [mPa·s]
283.15 K | 1365.3 | 181.62
288.15 K | 1360.8 | 133.92
293.15 K | 1356.3 | 101.07
298.15 K | 1351.8 | 77.99
303.15 K | 1347.4 | 61.3
308.15 K | 1342.9 | 49.03
313.15 K | 1338.5 | 39.75
318.15 K | 1334.1 | 32.73
323.15 K | 1329.6 | 27.38
328.15 K | 1325.2 | 23.11
333.15 K | 1320.8 | 19.71
338.15 K | 1316.5 | 16.97
343.15 K | 1312.1 | 14.73
348.15 K | 1307.8 | 12.87
353.15 K | 1303.4 | 11.32

CCC[n+]1cccc(C)c1.O=S(=O)([N-]S(=O)(=O)C(F)(F)F)C(F)(F)F
Details | electrical conductivity [S/m]
278.15 K | 0.152
283.15 K | 0.199
288.15 K | 0.253
293.15 K | 0.318
298.15 K | 0.393
303.15 K | 0.476
308.15 K | 0.571
313.15 K | 0.671
318.15 K | 0.786
323.15 K | 0.904
328.15 K | 1.04
333.15 K | 1.18
338.15 K | 1.33
343.15 K | 1.49
348.15 K | 1.65
353.15 K | 1.83

Details | mass density, Buoyancy - hydrostatic balance [kg/m3] | viscosity, Capillary tube (Ostwald / Ubbelohde) method [mPa·s]
288.15 K | 1459.6 | –
293.15 K | 1455.6 | –
298.15 K | 1451.4 | 54.12
303.15 K | 1447.1 | 43.46
308.15 K | 1442.6 | 35.27
313.15 K | 1438 | 29.18
318.15 K | 1433.2 | 24.32
323.15 K | 1428.7 | 20.87
328.15 K | 1424.5 | 17.94
333.15 K | 1420.3 | 15.15
338.15 K | 1416 | 13.4
343.15 K | – | 11.74
348.15 K | – | 10.37
353.15 K | – | 9.19

CCCCCC[n+]1cccc(C)c1.O=S(=O)([N-]S(=O)(=O)C(F)(F)F)C(F)(F)F
Details | electrical conductivity [S/m]
278.15 K | 0.0495
283.15 K | 0.067
288.15 K | 0.0885
293.15 K | 0.116
298.15 K | 0.148
303.15 K | 0.187
308.15 K | 0.231
313.15 K | 0.283
318.15 K | 0.342
323.15 K | 0.406
328.15 K | 0.477
333.15 K | 0.553
338.15 K | 0.638
343.15 K | 0.728
348.15 K | 0.822
353.15 K | 0.92

Details | mass density, Buoyancy - hydrostatic balance [kg/m3] | viscosity, Capillary tube (Ostwald / Ubbelohde) method [mPa·s]
283.15 K | 1373.6 | –
288.15 K | 1369.7 | –
293.15 K | 1365.3 | –
298.15 K | 1361.5 | 86.59
303.15 K | 1357 | 67.83
308.15 K | 1352.9 | 54.23
313.15 K | 1348.7 | 44.24
318.15 K | 1344.7 | 36.21
323.15 K | 1340.3 | 29.97
328.15 K | 1336 | 25.08
333.15 K | 1331.7 | 21.31
338.15 K | 1328 | 18.28
343.15 K | – | 15.88
348.15 K | – | 13.71
353.15 K | – | 11.99
